Data set [1] has as its system MDA-MB-231 cancer cells. Put plainly: MTT cell viability assay, MDA-MB-231 breast cancer cells. The format is cell-based, human. The conditions noted are these: 48 h incubation. The method, then:
(§1) Hormone-independent breast adenocarcinoma (MDA-MB-231), hormone-dependent breast adenocarcinoma (MCF7), human pancreatic carcinoma (Mia-Paca), and normal human fibroblast cell lines were purchased from American […] Culture Collection (ATCC, Manassas, VA, USA). Cell lines were cultured to 90% confluence using ATTC guidelines for cell culture prior to experimentation.
A 96 well plate was seeded with 5000 cells/well and incubated for 24 h to allow attachment. […] These compounds were then incubated into the cells for 48 h, followed by MTT assay to determine cell viability. Firstly, 15 µL of the MTT dye solution was incubated in the cells for 3 h. The MTT dye reacts with NADPH present in live cells to form an insoluble purple formazan product. Subsequently, 100 µL of a stop solution was added to solubilize this product and halt the enzymatic reaction between NADPH and MTT. Cells were then incubated with stop solution for 1 h. The absorbance of the formazan was then measured at 570 nm using a microplate spectrophotometer. Cell viability is reported as the ratio between experimental groups and a control normalized to 100%. All measurements were performed in triplicate measurements to obtain standard error, and the reported cell viability is the average of these measurements. The IC50 was calculated using the formula:
(§2) ((0.5−(f(a))×(b−a)+(f(b)−f(a))×a))/(f(b)−f(a)) where a is the concentration where the cell viability is above 50%, b is the concentration where the cell viability is below 50%, and f(a) and f(b) are respectively the cell viability percentages *0.01 at concentration a and b respectively.

The subject of data set [2] is Hs578Bst normal cells. Briefly: MTT cell viability assay, Hs578Bst normal breast cells. It counts as cell-based, human. The conditions noted are these: for IC50: RB and R110 GUMBOS and parent dyes, normal breast cells, 48 h incubation, MTT.
A short description of data set [3]: Octanol buffer partition coefficient. The format is physicochemical. The conditions noted are these: 1-octanol / pH 7.4 phosphate-citric acid buffer, 48 h stirring. As to the method:
Into a 20 mL vial, 1-Octanol is mixed with a pH 7.4 phosphate-citric acid buffer and stirred overnight. The two layers were separated and then a calibration curve was generated for each compound in 1-octanol using various concentrations. The phosphate-citric acid buffer was then added to one of the concentrations (Ci) and this mixture was stirred for 48 h. Subsequently, absorbance in the octanol layer was measured and the concentration (Co) calculated using the calibration curves. Later, the equation Ci − C0 = Cw was used to calculate the aqueous concentration (Cw). The octanol–water partition coefficient was then calculated using the equation Kow = […]/Cw.

Data set [4] can be described thus: Water solubility study. It counts as physicochemical. The conditions noted are these: water solubility at physiological pH. The method, then: Approximately fifty milliliters of water were added to three milligrams of GUMBOS. Absorbance measurements were then acquired over time until the absorbance reached a plateau. A calibration curve for an aqueous solution of GUMBOS was then generated at a soluble concentration, and the slope of the curve was used to calculate the solubility concentration. The solubility constant (Ksp) was then calculated using this concentration.

For data set [5], the system named is MiaPaca cancer cells. Put plainly: MTT cell viability assay, MiaPaca pancreatic cancer cells. Details: species or system human. The conditions noted are these: 48 h incubation. As to the method: as §1
(§3) A 96 well plate was seeded with 5000 cells/well and incubated for 24 h to allow attachment. Serial dilution from 100 µM to 0 µM was performed for each compound. These compounds were then incubated into the cells for 48 h, followed by MTT assay to determine cell viability. Firstly, 15 µL of the MTT dye solution was incubated in the cells for 3 h. The MTT dye reacts with NADPH present in live cells to form an insoluble purple formazan product. Subsequently, 100 µL of a stop solution was added to solubilize this product and halt the enzymatic reaction between NADPH and MTT. Cells were then incubated with stop solution for 1 h. The absorbance of the formazan was then measured at 570 nm using a microplate spectrophotometer. Cell viability is reported as the ratio between experimental groups and a control normalized to 100%. All measurements were performed in triplicate measurements to obtain standard error, and the reported cell viability is the average of these measurements. The IC50 was calculated using the formula:
as §2
(Tetrazolium dyes change colour on reduction, which living cells bring about.)

The subject of data set [6] is MCF7 cancer cells. Put plainly: MTT cell viability assay, MCF7 breast cancer cells. Also noted: species or system human. The conditions noted are these: 48 h incubation. The method, then: as §1, §3, §2
Data set [7] is described as follows: Zeta potential of nanoGUMBOS. It counts as physicochemical. The conditions noted are these: nanoGUMBOS at physiological pH (7.4). From the text: Following examination of the hydrophobicity of these GUMBOS, nanoGUMBOS were synthesized using a simple reprecipitaiton method as described in the experimental section. TEM images in Figure 2 are a display of spherical nanoparticles with diameters of ~100 nm for both R123 and SNAFR.

Setting [8] is: Homo sapiens, MDA-MB-231, 48 h, RB and R110 GUMBOS and parent dyes.
Setting [9] is: RB and R110 GUMBOS and parent dyes.
Setting [10] is: R123- and SNAFR-5-based nanoGUMBOS and parent dyes.

The text below walks through data of PMC7397155, “Comparison of Chemotherapeutic Activities of Rhodamine-Based GUMBOS and NanoGUMBOS” (Molecules, 2020).

For `N=c1ccc2c(-c3ccccc3C(=O)O)c3ccc(N)cc3oc-2c1` [[R110][Cl], rhodamine 110 chloride, reference compound], the half-inhibitory concentration (IC50) – broadly, the point on the concentration scale where inhibition reaches its midpoint – in data set [1] (setting [8]) was 781 µM; in data set [1] (setting [9]) it was 791.2 ± 2.7 µM; in data set [2] (Homo sapiens, Hs578Bst) it was 836.1 ± 5.3 µM. In data set [3], the “Log Kow” value stood at 0.22. For the same compound, the thermodynamic solubility (as a rule, solubility found after equilibrating the solid with the medium) in data set [4] was greater than 700 µM.
On to `COC(=O)c1ccccc1-c1c2ccc(N)cc2[o+]c2cc(N)ccc12.O=S(=O)([N-]S(=O)(=O)C(F)(F)C(F)(F)F)C(F)(F)C(F)(F)F` [[R123][BETI]], for which the IC50 in data set [1] (setting [10]) was 17.4 ± 3.7 µM; in data set [5] (setting [10]), 1.6 ± 0.7 µM; in data set [6] (setting [10]), greater than 100 µM. In addition, the “Log Kow” value in data set [3] amounted to 1.1. For the same compound, in data set [7], the “Zeta Potential” value is recorded as −16.8 ± 1.1 mV.
Turning to `COC(=O)c1ccccc1-c1c2ccc(=N)cc-2oc2cc(N)ccc12` [[R123][Cl], rhodamine 123, reference compound], the IC50 in data set [1] (Homo sapiens, MDA-MB-231, R123- and SNAFR-5-based nanoGUMBOS and parent dyes) was 24.3 ± 2.2 µM; in data set [5] (Homo sapiens, MIA PaCa-2, R123- and SNAFR-5-based nanoGUMBOS and parent dyes), 3.1 ± 1.1 µM; in data set [6] (Homo sapiens, MCF7, R123- and SNAFR-5-based nanoGUMBOS and parent dyes), greater than 100 µM. Further, in data set [2] (result in words, Figure 6), the “Toxicity towards Hs578Bst normal cells” value is recorded as “slight toxicity towards normal cells”. Moreover, in data set [3], the “Log Kow” value is on record as 0.25.
In the case of `COC(=O)c1ccccc1-c1c2ccc(=[NH2+])cc-2oc2cc(N)ccc12.c1ccc([B-](c2ccccc2)(c2ccccc2)c2ccccc2)cc1` [[R123][TPB]], the values for the IC50 in data set [1] (setting [10]), in data set [5] (setting [10]) and in data set [6] (setting [10]) were 20.6 ± 3.5 µM, 2.5 ± 0.9 µM and greater than 100 µM, respectively. Also, in data set [3], the “Log Kow” value was found to be 0.8. Further, the “Zeta Potential” value in data set [7] is reported as −16.5 ± 1.4 mV.
Consider `CCN(CC)c1ccc2c(-c3ccccc3C(=O)O)c3ccc(=[N+](CC)CC)cc-3oc2c1.O=S(=O)([N-]S(=O)(=O)C(F)(F)C(F)(F)F)C(F)(F)C(F)(F)F` [[RB][BETI]], for which the 50% inhibitory concentration (IC50) was determined as 89.5 ± 3.4 µM in data set [1] (setting [9]) and 540 ± 6.2 µM in data set [2]. Moreover, the “Log Kow” value in data set [3] came to 1.25.
`CCN(CC)c1ccc2c(-c3ccccc3C(=O)O)c3ccc(=[N+](CC)CC)cc-3oc2c1` [[RB][Cl], Rhodamine B chloride, reference compound]: the IC50 in data set [1] (setting [8]) was 291 ± 1.2 µM; in data set [2] (Homo sapiens, Hs578Bst) it was 500 ± 5.2 µM. For the same compound, the “Log Kow” value in data set [3] is listed as 1.1.
On to `CCN(CC)c1ccc2c(-c3ccccc3C(=O)O)c3ccc(=[N+](CC)CC)cc-3oc2c1.c1ccc([B-](c2ccccc2)(c2ccccc2)c2ccccc2)cc1` [[RB][TPB]], for which the values for the 50% inhibitory concentration (IC50) in data set [1] (setting [9]) and in data set [2] were 77.5 ± 5.7 µM and 533.7 ± 3.3 µM, respectively. The “Log Kow” value in data set [3] worked out at 1.6.
